This series deals with CCRIS mutagenicity, Ames/micronucleus/aberration tests. As to the kind of experiment: CCRIS mutagenicity studies.
Where [1] appears, read: Test System: AMES SALMONELLA TYPHIMURIUM, Strain/Indicator: TA98, Metabolic Activation: NONE, Method: STANDARD PLATE.
Where [2] appears, read: Test System: AMES SALMONELLA TYPHIMURIUM, Strain/Indicator: TA100, Metabolic Activation: NONE, Method: STANDARD PLATE.
Setting [3] is: Test System: AMES SALMONELLA TYPHIMURIUM, Strain/Indicator: TA1535, Metabolic Activation: NONE, Method: STANDARD PLATE.
[4] abbreviates: Test System: AMES SALMONELLA TYPHIMURIUM, Strain/Indicator: TA98, Metabolic Activation: RAT, LIVER, S-9, AROCLOR 1254, Method: STANDARD PLATE.
Where [5] appears, read: Test System: AMES SALMONELLA TYPHIMURIUM, Strain/Indicator: TA100, Metabolic Activation: RAT, LIVER, S-9, AROCLOR 1254, Method: STANDARD PLATE.

Each structure is given as a SMILES string. The source made the active and inactive calls. How the calls were made is not given here.

As to `NC1CCC(N)CC1` (stereo not given), the mutagenic call by setting is: (Test System: AMES SALMONELLA TYPHIMURIUM, Strain/Indicator: TA97, Metabolic Activation: NONE, Method: STANDARD PLATE) “inactive; negative”; (Test System: AMES SALMONELLA TYPHIMURIUM, Strain/Indicator: TA97, Metabolic Activation: RAT, LIVER, S-9, Method: STANDARD PLATE) “inactive; negative”; under setting [1], “inactive; negative”; (Test System: AMES SALMONELLA TYPHIMURIUM, Strain/Indicator: TA98, Metabolic Activation: RAT, LIVER, S-9, Method: STANDARD PLATE) “inactive; negative”; under setting [2], “inactive; negative”; (Test System: AMES SALMONELLA TYPHIMURIUM, Strain/Indicator: TA100, Metabolic Activation: RAT, LIVER, S-9, Method: STANDARD PLATE) “inactive; negative”. Moreover, the mutagenic call under setting [3] is “inactive; negative” and the mutagenic call (Test System: AMES SALMONELLA TYPHIMURIUM, Strain/Indicator: TA1535, Metabolic Activation: RAT, LIVER, S-9, Method: STANDARD PLATE) is “inactive; negative”.

As for `Cc1c[nH]c(=O)[nH]c1=O`, the mutagenic call (Test System: CHINESE HAMSTER V-79, Strain/Indicator: V-79 (HPRT)/6-THIOGUANINE, Metabolic Activation: NONE, Method: STANDARD PLATE) was “inactive; negative”.

In the case of `c1ccc2c(c1)[nH]c1cnccc12`, the mutagenic call (Test System: AMES SALMONELLA TYPHIMURIUM, Strain/Indicator: TA98, Metabolic Activation: RAT, LIVER, S-9, AROCLOR 1254, Method: PREINCUBATION) was “inactive; negative”.

Consider `CC(C)C(=O)N(O)c1ccc(Cl)cc1`, for which the mutagenic call under setting [1] was “inactive; negative”, the mutagenic call under setting [4] is “active; positive”, the mutagenic call under setting [2] is “inactive; negative” and the mutagenic call under setting [5] was “inactive; negative”.

For the molecule `N[C@@H](CS/C=C/Cl)C(=O)O`, the mutagenic call was “inactive; negative” (Test System: AMES SALMONELLA TYPHIMURIUM, Strain/Indicator: TA100, Metabolic Activation: NONE, Method: PREINCUBATION) and “active; positive” (Test System: AMES SALMONELLA TYPHIMURIUM, Strain/Indicator: TA2638, Metabolic Activation: NONE, Method: PREINCUBATION).

As for `CC(=O)N1CCC[C@H]1C(=O)N(CC(=O)O)N=O`, the mutagenic call under setting [1] is “inactive; negative”; the mutagenic call under setting [4] is “inactive; negative”; the mutagenic call (Test System: AMES SALMONELLA TYPHIMURIUM, Strain/Indicator: TA100, Metabolic Activation: HOST MEDIATED, Method: STANDARD PLATE) was “active; positive”; the mutagenic call under setting [2] was “active; positive”; the mutagenic call under setting [5] was “active; positive”; the mutagenic call (Test System: AMES SALMONELLA TYPHIMURIUM, Strain/Indicator: TA102, Metabolic Activation: NONE, Method: STANDARD PLATE) was “active; positive”. Besides, the mutagenic call (Test System: AMES SALMONELLA TYPHIMURIUM, Strain/Indicator: TA102, Metabolic Activation: RAT, LIVER, S-9, AROCLOR 1254, Method: STANDARD PLATE) was “active; positive”; the mutagenic call under setting [3] was “active; positive”; the mutagenic call (Test System: AMES SALMONELLA TYPHIMURIUM, Strain/Indicator: TA1535, Metabolic Activation: RAT, LIVER, S-9, AROCLOR 1254, Method: STANDARD PLATE) was “active; positive”; the mutagenic call (Test System: AMES SALMONELLA TYPHIMURIUM, Strain/Indicator: TA1537, Metabolic Activation: NONE, Method: STANDARD PLATE) is “inactive; negative”; the mutagenic call (Test System: AMES SALMONELLA TYPHIMURIUM, Strain/Indicator: TA1537, Metabolic Activation: RAT, LIVER, S-9, AROCLOR 1254, Method: STANDARD PLATE) was “inactive; negative”; the mutagenic call (Test System: AMES SALMONELLA TYPHIMURIUM, Strain/Indicator: TA1538, Metabolic Activation: NONE, Method: STANDARD PLATE) is “inactive; negative”. The mutagenic call (Test System: AMES SALMONELLA TYPHIMURIUM, Strain/Indicator: TA1538, Metabolic Activation: RAT, LIVER, S-9, AROCLOR 1254, Method: STANDARD PLATE) was “inactive; negative” and the mutagenic call (Test System: CHO/HGPRT, Strain/Indicator: CHO-K1-BH4, Metabolic Activation: NONE) is “active; positive”.

The record behind these values is PubChem BioAssay AID1259407 (Chemical Carcinogenesis Research Information System (CCRIS), 2018).
